How the values were obtained:
[1] = tested on: exercise strength and stamina; assay: Inhalation exposure of the inventor to androstenone released from a polyethylene bag: exercise strength and stamina; assay type: in vivo; conditions: human (inventor), after about five to seven days of exposure
From the text: (§1) For example, increased strength was evidenced by an at least 5-10%, and more typically 10-20% increase of weight that was lifted as compared to the same exercise before exposure to the pheromone.
With respect to the effects afforded by contemplated compositions and devices, it is generally contemplated that the steroid pheromones will exert both a desirable behavioral effect as well as a desirable non-behavioral effect. […] The term “exercise strength” as used herein refers to an ability to lift a particular weight in a given exercise routine (e.g., lifting of 100 pounds on a bench press). Thus, where exercise strength is increased, heavier weights can be lifted. Most typically the increase in exercise strength is between 5 and 40%, and more typically between 10 and 25%. […] The term “exercise stamina” as used herein refers to an ability to lift a particular weight in a given exercise routine for a maximum of repeats Rmax (e.g., lifting of 100 pounds on a bench press ten times). Thus, where exercise stamina is increased, the weight can be lifted more that Rmax times. Most typically the increase in exercise strength is between 5 and 30%, and more typically between 10 and 20%.

[2] = tested on: sinusitis; assay: Inhalation exposure of the inventor to androstenone released from a polyethylene bag: sinusitis signs and symptoms; assay type: in vivo; conditions: human (inventor); about 500 mg in polyethylene bag; about five to seven days of exposure, two to eight hours per day
From the text: as §1
Therefore, it is also contemplated that the compositions and methods presented herein may present a convenient matter to treat and/or alleviate signs and symptoms of airway inflammation. Most preferably, such inflammation may be sinusitis, asthma, and allergic airway inflammation. In yet other contemplated aspects, additional behavioral effects may be advantageously conferred by use of contemplated compositions and methods, especially including feeling of increased energy, sexual desire, and self-confidence.

With C[C@]12CCC(=O)C[C@@H]1CC[C@@H]1[C@@H]2CC[C@]2(C)C=CC[C@@H]12 [androstenone, 5α-androst-16-en-3-one] the “increase of weight that was lifted as compared to the same exercise before exposure (exercise strength)” value ([1]; 'at least') was 5-10%, the “increase of weight that was lifted as compared to the same exercise before exposure (exercise strength)” value ([1]; 'more typically') was 10-20% and the “increase in number of repeats per exercise (exercise stamina)” value ([1]; 'most typically') was 5-20%. The “signs and symptoms of a previously diagnosed sinusitis” value [2] was “all signs and symptoms of a previously diagnosed sinusitis had disappeared”.

From patent US20070048231A1, “Pheromone compositions and methods” (priority 2005, published 2007)
